# Source: the supplement of paper PMC10920090
# Tests used:
# MDA-MB-231 [1] = experiment: drug sensitivity score (DSS), cytotoxicity CellTox Green; higher = more cytotoxic; extreme values may be limits of the assay; conditions: 72 h
# MDA-MB-231 [2] = experiment: drug sensitivity score (DSS), cell viability CellTiter-Glo; higher = more sensitive; extreme values may be limits of the assay; conditions: 72 h
# 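Wherever drug sensitivity score (DSS), cytotoxicity CellTox Green is given: DSS summarises each dose–response curve by combining IC50, EC50, maximal inhibition and efficacy across drug concentrations.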
Structure (SMILES),drug sensitivity score (MDA-MB-231 [1]; shRNA: shPPFIA1_1) [DSS],drug sensitivity score (MDA-MB-231 [1]; shRNA: shScramble) [DSS],drug sensitivity score (MDA-MB-231 [2]; shRNA: shPPFIA1_1) [DSS],drug sensitivity score (MDA-MB-231 [2]; shRNA: shScramble) [DSS]
COc1cc(N2CCC(N3CCN(C)CC3)CC2)ccc1Nc1ncnc(Nc2ccccc2S(=O)(=O)C(C)C)n1 [ASP3026],0,0,0.3,3.7
CN1CCN(c2nc(C3=C(c4c[nH]c5ccccc45)C(=O)NC3=O)c3ccccc3n2)CC1 [Sotrastaurin],0.7,0,1,0
CO[C@@H]1[C@H](N(C)C(=O)c2ccccc2)C[C@H]2O[C@]1(C)n1c3ccccc3c3c4c(c5c6ccccc6n2c5c31)C(=O)NC4 [Midostaurin],0,0.1,0,3.5
CNC(=O)c1cccc(-c2ccc3c(N4CCOC[C@@H]4C)nc(N4CCOC[C@@H]4C)nc3n2)c1 [AZD2014],0,0.5,0,7.9
COC(=O)c1ccc2c(c1)[nH]c1ncnc(NCCCN3CCCCC3)c12 [UM729],0,0,0,0
C=CCc1cccc(/C=N/NC(=O)CN2CCN(Cc3ccccc3)CC2)c1O [PAC-1],0,0,2.7,3.8
CCNC(=O)CCC/C=C\C[C@@H]1[C@@H](/C=C/[C@@H](O)CCc2ccccc2)[C@H](O)C[C@@H]1O [Bimatoprost],0,0,0,0
COc1cc2ncnc(Oc3cccc(NC(=O)Nc4cc(C(C)(C)C(F)(F)F)on4)c3)c2cc1OC,4,7.8,0,7.7
CCC1(c2ccc(N)cc2)CCC(=O)NC1=O (centres undefined) [Aminoglutethimide],0,0,0,0
O=C(O)c1ccc(CN2CCC(CN[C@@H]3C[C@H]3c3ccccc3)CC2)cc1,0,0,0,0
COc1cc2c(cc1O)CC[C@@H]1[C@@H]2CC[C@]2(C)[C@@H](O)CC[C@@H]12 [2-methoxyestradiol],0,0.3,0.7,2.9
C[C@]12CC[C@H](O)CC1=CC[C@@H]1[C@@H]2CC[C@]2(C)C(c3cccnc3)=CC[C@@H]12 [Abiraterone],0,0,0,0.9
CCOc1cc2ncc(C#N)c(Nc3ccc(F)c(Cl)c3)c2cc1NC(=O)/C=C/CN(C)C [Pelitinib],2.7,0,14.9,21.1
CN(N=O)C(=O)N[C@@H](C=O)[C@@H](O)[C@H](O)[C@H](O)CO [Streptozocin],0,0,0.1,0.3
C[C@@H](C(=O)O)c1ccc(-c2ccccc2)c(F)c1 [Tarenflurbil],0,0,0,0
COc1ccc(-c2cc3c(C)nc(N)nc3n([C@H]3CC[C@H](OCCO)CC3)c2=O)cn1,1.1,2.4,0,6.2
N#CC1(c2ccc(NC(=O)c3cccnc3NCc3ccncc3)cc2)CCCC1 [Apatinib],0,0,0,0
CC[C@@H]1C(=O)OC[C@@H]1Cc1cncn1C [Pilocarpine],0,0,0,0
Cc1ncc(-c2ccnc(Nc3ccc(S(C)(=O)=O)cc3)n2)n1C(C)C [AZD-5438],2.7,0.5,0.1,2.3
O=C(Nc1cccc(C(F)(F)F)c1)Nc1cc(S(=O)(=O)NC2CC2)ccc1-c1ccsc1 [AGI-6780],0.5,0,0,0
COc1cccc2c1C(=O)c1c(O)c3c(c(O)c1C2=O)C[C@@](O)(C(C)=O)C[C@@H]3O[C@H]1C[C@H](N)[C@H](O)[C@H](C)O1 [Daunorubicin],0,0,2.8,7.5

Structure (SMILES),drug sensitivity score (MDA-MB-231 [1]; shRNA: shPPFIA1_1) [DSS],drug sensitivity score (MDA-MB-231 [1]; shRNA: shScramble) [DSS],drug sensitivity score (MDA-MB-231 [2]; shRNA: shPPFIA1_1) [DSS],drug sensitivity score (MDA-MB-231 [2]; shRNA: shScramble) [DSS]
CN(C)c1cc2c(cc1Sc1nc3c(N)nccc3n1CCNCC(C)(C)C)OCO2 [CUDC-305],3.4,3.4,8.7,13.6
C[C@@H](Oc1cc(-c2cnn(C3CCNCC3)c2)cnc1N)c1c(Cl)ccc(F)c1Cl [Crizotinib],0,0,0.1,0
CCCS(=O)(=O)Nc1ccc(F)c(C(=O)c2c[nH]c3ncc(-c4ccc(Cl)cc4)cc23)c1F [Vemurafenib],0,1.8,0,0
Nc1nc2[nH]cc(CCc3ccc(C(=O)N[C@@H](CCC(=O)O)C(=O)O)cc3)c2c(=O)[nH]1 [Pemetrexed],0,0,5.6,8.3
Clc1ccc(C(c2ccccc2Cl)C(Cl)Cl)cc1 (centres undefined) [Mitotane],0,0,0,0
CC(C)[C@@H](CS(=O)(=O)C(C)C)N1C(=O)[C@@](C)(CC(=O)O)C[C@H](c2cccc(Cl)c2)[C@H]1c1ccc(Cl)cc1 [AMG-232],12.7,0,0,0
Cc1nc(C(=O)NCC(=O)O)c(O)c2ccc(Oc3ccccc3)cc12 [FG-4592],0,0,2.2,2.9
C=CCn1c(=O)c2cnc(Nc3ccc(N4CCN(C)CC4)cc3)nc2n1-c1cccc(C(C)(C)O)n1 [MK1775],9.4,7.6,5.1,7.5
NC1(c2ccc(-c3nc4ccn5c(=O)[nH]nc5c4cc3-c3ccccc3)cc2)CCC1 [MK-2206],0,0,6.5,6.8
Cc1ncc(Cl)cc1NCc1ccc(C(=O)N[C@@H](CC2CCCC2)C(=O)NC2CC2)s1,0,0,0,0
C[C@]12CC[C@@H]3c4ccc(O)cc4C[C@@H](CCCCCCCCC[S+]([O-])CCCC(F)(F)C(F)(F)F)[C@H]3[C@@H]1CC[C@@H]2O (some centres undefined) [Fulvestrant],0,0,0,0
CO[C@H](C(=O)[C@@H](O)[C@@H](C)O)[C@@H]1Cc2cc3cc(O[C@H]4C[C@@H](O[C@@H]5C[C@@H](O)[C@H](O)[C@@H](C)O5)[C@H](O)[C@@H](C)O4)c(C)c(O)c3c(O)c2C(=O)[C@H]1O[C@H]1C[C@@H](O[C@@H]2C[C@@H](O)[C@@H](O[C@@H]3C[C@](C)(O)[C@H](O)[C@@H](C)O3)[C@@H](C)O2)[C@H](O)[C@@H](C)O1 [Plicamycin],8.5,7.1,6.2,11.6
CC(C)N(CCCNC(=O)Nc1ccc(C(C)(C)C)cc1)C[C@H]1O[C@@H](n2cc(Br)c3c(N)ncnc32)[C@H](O)[C@@H]1O [SGC0946],5.5,0.6,5,1.5
CCCC(CCC)C(=O)O [Valproic acid],0,0,0,0
Clc1ccccc1C(c1ccccc1)(c1ccccc1)n1cccn1 [TRAM-34],0,0,0,0
CCNc1nc(Nc2cc(F)c(C(=O)N3CCOCC3)cc2OC)ncc1C(F)(F)F [GNE-7915],0,0,0,0
CCN(c1cc(-c2ccc(CN3CCOCC3)cc2)cc(C(=O)NCc2c(C)cc(C)[nH]c2=O)c1C)C1CCOCC1 [Tazemetostat],0,0,1,0
CCc1cncnc1N1CCN(Cc2nc3ccc(C(F)(F)F)cc3[nH]2)CC1,0.6,0,0,1.3
COCC[n+]1c2c(n(Cc3cnccn3)c1C)C(=O)c1ccccc1C2=O [YM155],20.5,34.6,24.1,33.4
O=S(=O)(c1cccc2c(O)nccc12)N1CCCNCC1 [Hydroxyfasudil],0,0,0,0
COc1ccc(C[C@H](NC(=O)[C@H](C)NC(=O)CN2CCOCC2)C(=O)N[C@@H](Cc2ccccc2)C(=O)C2(C)CO2)cc1 (stereo in doubt) [ONX-0914],19.1,18.6,17.1,18.1

Structure (SMILES),drug sensitivity score (MDA-MB-231 [1]; shRNA: shPPFIA1_1) [DSS],drug sensitivity score (MDA-MB-231 [1]; shRNA: shScramble) [DSS],drug sensitivity score (MDA-MB-231 [2]; shRNA: shPPFIA1_1) [DSS],drug sensitivity score (MDA-MB-231 [2]; shRNA: shScramble) [DSS]
Oc1c2ccccc2c2c3c(cccc13)N=N2,0,0,0,0.5
NC(=O)Nc1sc(-c2ccc(F)cc2)cc1C(N)=O [TPCA-1],0.9,0,0,1.9
Cn1nnc2c(C(N)=O)ncn2c1=O [Temozolomide],0,0,1.8,2.6
CC/C(=C(\c1ccccc1)c1ccc(OCCN(C)C)cc1)c1ccccc1 [Tamoxifen],6.3,1.8,1.8,1
Cc1ccc(F)c(NC(=O)Nc2ccc(-c3cccc4[nH]nc(N)c34)cc2)c1 [Linifanib],0,0,0,0
CCCCC(=O)OCC(=O)[C@]1(O)Cc2c(O)c3c(c(O)c2[C@@H](O[C@H]2C[C@H](NC(=O)C(F)(F)F)[C@H](O)[C@H](C)O2)C1)C(=O)c1c(OC)cccc1C3=O [Valrubicin],0,0,0.8,7
CCS(=O)(=O)c1cccc(-c2cc(C(=O)NC3CCN(C)CC3)c(C)c3[nH]c4ncc(C)cc4c23)c1 [TAK-901],0,0,0,3.6
COc1cccc2c1C(=O)c1c(O)c3c(c(O)c1C2=O)C[C@@](O)(C(=O)CO)C[C@@H]3O[C@H]1C[C@H](N)[C@H](O)[C@H](C)O1 [Doxorubicin],0,0,1.4,6.8
Cc1cc(C)c(/C=C2\C(=O)Nc3ccccc32)[nH]1 [Semaxanib],0.2,3.5,0,0
CN1CC[C@H](c2c(O)cc(O)c3c(=O)cc(-c4ccccc4Cl)oc23)[C@H](O)C1 [Alvocidib],11.9,7.4,10.6,15.2
CC(C)Oc1ccc(C(=O)N[C@H](CNC(=O)CN(C)C)Cc2ccc(-c3cn4cccc([C@H](C)O)c4n3)cc2)cc1Cl,10.3,6.2,3.5,13.6
O=C(CCCCCCC(=O)Nc1ccc([C@H]2O[C@@H](CSc3nc(-c4ccccc4)c(-c4ccccc4)o3)C[C@@H](c3ccc(CO)cc3)O2)cc1)NO [Tubacin],7.2,2.2,7.3,5
CC(=O)O[C@H]1C(=O)[C@@]2(C)[C@H]([C@H](OC(=O)c3ccccc3)[C@]3(O)C[C@H](OC(=O)[C@H](O)[C@@H](NC(=O)c4ccccc4)c4ccccc4)C(C)=C1C3(C)C)[C@]1(OC(C)=O)CO[C@@H]1C[C@@H]2O [Paclitaxel],8.8,9.2,0,12.8
Oc1nc(-c2ccc(C(F)(F)F)cc2)nc2c1CSCC2 [XAV-939],1.2,0,1.6,0.5
CN(CC(=O)N(Cc1ccc(C2CCCCC2)cc1)c1ccc(C(=O)O)cc1)S(=O)(=O)c1c(F)c(F)c(F)c(F)c1F [SH-4-54],7.3,7.7,3.8,5.7
Cn1cnc2c(F)c(Nc3ccc(Br)cc3F)c(C(=O)NOCCO)cc21 [Binimetinib],0,2.2,0,2.7
Nc1ccccc1NC(=O)c1ccc(CNc2nccc(-c3cccnc3)n2)cc1 [Mocetinostat],10.5,4.8,3.6,8.3
COc1cc(Br)c(Nc2nc(-c3c(C)nc4ncccn34)cs2)c(Br)c1 [PTC-209],0,0,0,7.5
COc1cc([C@@H]2c3cc4c(cc3[C@@H](O[C@@H]3O[C@@H]5CO[C@@H](C)O[C@H]5[C@H](O)[C@H]3O)[C@H]3COC(=O)[C@H]23)OCO4)cc(OC)c1O [Etoposide],1.6,1.8,0,2
